{"source": "PubChem BioAssay AID720495", "about": "(Broad Institute, 2013)", "note": "Inconclusive results are not listed. The source made the active and inactive calls. No rule for the calls is given here."}
{"target": "Protein AF-9 (Homo sapiens) (UniProt P42568)", "sequence (P42568 whole entry, looked up)": "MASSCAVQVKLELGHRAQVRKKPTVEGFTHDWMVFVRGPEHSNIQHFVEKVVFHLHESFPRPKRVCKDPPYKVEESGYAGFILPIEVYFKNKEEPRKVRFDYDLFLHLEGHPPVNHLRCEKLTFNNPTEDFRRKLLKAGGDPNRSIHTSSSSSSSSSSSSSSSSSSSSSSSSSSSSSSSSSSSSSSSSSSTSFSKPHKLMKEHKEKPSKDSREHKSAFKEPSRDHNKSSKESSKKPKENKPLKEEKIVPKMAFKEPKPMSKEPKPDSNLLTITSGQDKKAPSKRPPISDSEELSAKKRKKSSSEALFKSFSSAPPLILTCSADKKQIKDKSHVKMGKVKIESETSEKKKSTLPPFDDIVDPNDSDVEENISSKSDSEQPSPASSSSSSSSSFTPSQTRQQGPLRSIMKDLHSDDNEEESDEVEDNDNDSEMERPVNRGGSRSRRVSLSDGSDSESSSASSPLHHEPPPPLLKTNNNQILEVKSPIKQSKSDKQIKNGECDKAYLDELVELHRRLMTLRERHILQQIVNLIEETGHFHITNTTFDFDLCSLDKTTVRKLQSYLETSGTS", "assay": "AF9 binding to AF4 blockers, potency – biochemical, cherry-picked samples, plate reader, dose response (AID 720495)", "conditions": "biochemical protein-protein interaction assay", "units": {"AC50": "µM"}}
{"smiles": "Oc1ccc(O)c(C=NNC(=S)NC2CC3CC2C2C=CCC32)c1", "note": "(centres undefined)", "AC50": 8.16}
{"smiles": "COC(=O)c1ccc2nc(C)cc(Nc3ccc(N(C)C)cc3)c2c1", "AC50": 4.41}
{"smiles": "CN(C)c1ccc(/C=C/C=C/c2sc3ccccc3[n+]2C)cc1", "AC50": 2.09}
{"smiles": "CN1CCN(C(c2ccc(C(F)(F)F)cc2)c2ccc3cccnc3c2O)CC1", "note": "(centres undefined)", "AC50": 0.857}
{"smiles": "CN(C)c1ccc(N=Nc2ccccc2Br)cc1", "AC50": 10.3}
{"smiles": "COc1cc(OC)c2c(c1C(CCN1CCOCC1)c1ccc(N(C)C)cc1)OC(=O)CC2c1ccc(N(C)C)cc1", "note": "(centres undefined)", "AC50": 10.7}
{"smiles": "CCN1/C(=C/C(C)=C/c2sc3ccccc3[n+]2CC)Sc2ccccc21", "AC50": 5.6}
{"smiles": "CN(C)c1ccc(C=c2c3ccccc3n3c2cc(-c2ccccc2)[n+]3C)cc1", "AC50": 2.43}
{"smiles": "CCN(CC)c1ccc(N=C2C(=O)Nc3ccccc32)cc1", "AC50": 2.77}
{"smiles": "Brc1ccc(N/N=C(/N=Nc2nn[nH]n2)c2ccccc2)cc1", "AC50": 5.84}
{"smiles": "Cc1cccc(N=NC(=S)NNc2cccc(C)c2)c1", "AC50": 0.212}
{"smiles": "CN1CCN(C(c2ccc(Cl)cc2)c2cc(Cl)c3cccnc3c2O)CC1", "note": "(centres undefined)", "AC50": 0.984}
{"smiles": "CN(C)c1ccc(C=c2c3ccccc3n3c2c2ccccc2[n+]3C)cc1", "AC50": 1.65}
{"smiles": "CCN(CCCNc1cc2c(c(N)c1S(=O)(=O)O)C(=O)c1ccccc1C2=O)c1ccccc1", "AC50": 3.65}
{"smiles": "CN(CCc1ccccc1)C(=O)c1ccc(NC(=O)Cc2ccc(NC(=O)C3CCN(C(=O)C4CCCC4)CC3)cc2)cc1", "AC50": "< 0.08"}
{"smiles": "CN(C)c1cccc2c(C=C(C#N)C#N)ccc(N(C)C)c12", "AC50": 1.04}
{"smiles": "COc1ccc2[nH]c(C)c(CCNCc3cn(C)c4ccccc34)c2c1", "AC50": 6.85}
{"smiles": "COc1ccc(C#Cc2ccc3c(c2)[C@H]2[C@H](CCN2C(=O)c2ccncc2)[C@@H](CO)N3)cc1", "AC50": 10.7}
{"smiles": "CN(C)c1ccc(CNCCC(Cc2ccccc2)c2ccco2)cc1", "note": "(centres undefined)", "AC50": 5.44}
{"smiles": "COc1ccc(OC)c(Nc2c3ccccc3nc3ccccc23)c1", "AC50": 7.11}
{"smiles": "COc1ccc2nc3ccccc3nc2c1N", "AC50": 3.44}
{"smiles": "Cc1cc(N=Nc2ccc3ccccc3c2)ccc1O", "AC50": 9.43}
{"smiles": "Cc1ccn2c(Nc3ccc4c(c3)OCO4)c(-c3ccccn3)nc2c1", "AC50": 3.55}
{"smiles": "COc1ccccc1N(C(C)=O)C1=C(Cl)C(=O)c2ccccc2C1=O", "AC50": 7.96}
{"smiles": "C[n+]1c(-c2ccc(C=NNC(=O)c3ccc(C(=O)NN=Cc4ccc(-c5cn6ccccc6[n+]5C)cc4)cc3)cc2)cn2ccccc21", "AC50": 0.804}
{"smiles": "COc1ccc(NCc2ccc(OC)c(Cn3ccnc3)c2)c(OC)c1", "AC50": 11.2}
{"smiles": "Cc1ccc2c(c1)C1CN(C)CCC1N2Sc1ccccc1[N+](=O)[O-]", "note": "(centres undefined)", "AC50": 5.01}
{"smiles": "CC1(C)CC(Nc2ccc(Nc3ccccc3)cc2)CC(C)(C)N1", "AC50": 6.78}
{"smiles": "CN1CCN(/N=C/c2ccc(-c3ccc([N+](=O)[O-])cc3Cl)o2)CC1", "AC50": 9.35}
{"smiles": "C[C@@H]1CCCCO[C@H](CN(C)Cc2ccc(Cl)c(Cl)c2)[C@@H](C)CN([C@H](C)CO)C(=O)c2cc(N(C)C)ccc2O1", "AC50": 10.1}
{"smiles": "Cc1ccc2nc(-c3ccc(NC(=S)NC4CC(C)(C)NC(C)(C)C4)cc3)sc2c1", "AC50": 7.34}
{"smiles": "CN1CCN(C2CCN(Cc3ccc(O)c4ncccc34)CC2)CC1", "AC50": 2.77}
{"smiles": "CCN(CC)CCOc1ccc2c(c1)C(=NNC(=O)c1ccccn1)c1cc(OCCN(CC)CC)ccc1-2", "AC50": 3.66}
{"smiles": "COc1ccc(C(CCNCc2ccc(N(C)C)cc2)c2ccccc2OC)cc1", "note": "(centres undefined)", "AC50": 6.09}
{"smiles": "COc1cc(OC)c2c(-c3ccccc3)cc(=O)oc2c1C(CCN1CCCCC1)c1ccc2c(c1)OCO2", "note": "(centres undefined)", "AC50": 1.08}
{"smiles": "COc1cccc(CNCCc2c[nH]c3ccccc23)c1OCc1ccccc1", "AC50": 11.5}
{"smiles": "CC1NC(=O)NC1CCCCCC(=O)Nc1ccc(F)cc1", "note": "(centres undefined)", "AC50": "< 0.08"}
{"smiles": "Oc1cc(Nc2cccnc2)cc2cccnc12", "AC50": 6.03}
{"smiles": "CC(C)Nc1ccc(Nc2ccnc3cc4ccccc4cc23)cc1", "AC50": 2.45}
{"smiles": "CN(C)CCNc1ncnc2c1sc1nc(-c3ccccc3)c3c(c12)CCCC3", "AC50": 6.89}
{"smiles": "O=C1c2ccccc2NC(c2cccc([N+](=O)[O-])c2)N1O", "note": "(centres undefined)", "AC50": 11.2}
{"target": "Protein AF-9 (Homo sapiens) (UniProt P42568)", "assay": "AF9 binding to AF4 blockers, potency – biochemical, cherry-picked samples, plate reader, dose response (AID 720495)", "conditions": "biochemical protein-protein interaction assay, at 10 µM (top of the series)"}
{"smiles": "Cc1ccc(-c2cc(-c3ccc(C)cc3)[n+](-c3ccc(C(=O)[O-])cc3)c(-c3ccc(C)cc3)c2)cc1", "activity change, negative = inhibition": "inactive"}
{"smiles": "CCOc1ccc(OCCSc2ccc(S(=O)(=O)N3CCN(C)CC3)cn2)cc1", "activity change, negative = inhibition": "inactive"}
{"smiles": "CCN(CC)c1ccc(N=Cc2ccc([N+](=O)[O-])o2)cc1", "activity change, negative = inhibition": "inactive"}
{"smiles": "COc1ccc(NC2CCCN(Cc3cccc4cnccc34)C2)cc1OC", "note": "(centres undefined)", "activity change, negative = inhibition": "inactive"}
{"smiles": "C#CCOCCOCCOCCNc1nc(N2CCN(C(=O)[C@H](CCCN=C(N)N)n3cc(C(N)[C@@H](C)CC)nn3)CC2)nc(N2CCN(C(=O)[C@H](CCCCN)n3cc([C@@H](N)CC(N)=O)nn3)CC2)n1", "note": "(some centres undefined)", "activity change, negative = inhibition": "inactive"}
{"smiles": "Cc1[nH]n(-c2ccccc2)c(=O)c1N=Nc1c(O)cc(S(=O)(=O)N(C)C)c2ccccc12", "activity change, negative = inhibition": "inactive"}
{"smiles": "CCN(CC)c1ccc(CN2CCC(C(=O)NCc3ccc(C)cc3)CC2)cc1", "activity change, negative = inhibition": "inactive"}
{"smiles": "CN(C)c1ccc(C(CN)c2c[nH]c3ccccc23)cc1", "note": "(centres undefined)", "activity change, negative = inhibition": "inactive"}
{"smiles": "c1ccc2c(c1)nc(Nc1ccc(N3CCCCC3)cc1)c1nncn12", "activity change, negative = inhibition": "inactive"}
{"smiles": "CN=c1scc(-c2ccccc2F)n1/N=C(\\C)c1cccnc1", "activity change, negative = inhibition": "inactive"}
{"smiles": "CCN(CC)CCNc1cccc2sc3ccccc3c(=O)c12", "activity change, negative = inhibition": "inactive"}
{"smiles": "CCOc1cc(/C=N/N=C(N)N)ccc1OCc1ccc(Cl)cc1", "activity change, negative = inhibition": "inactive"}
{"smiles": "Cc1cccc(-c2ccc3[nH]c4c(c3c2)CCN2C[C@H]3[C@H](C)ON(C)[C@H]3C[C@@H]42)c1", "activity change, negative = inhibition": "inactive"}
{"smiles": "COc1ccc(-c2oc3ccccc3c(=O)c2OC(C)=O)cc1", "activity change, negative = inhibition": "inactive"}
{"smiles": "CCCCCN=C(N)N/N=C/c1c[nH]c2ccc(OC)cc12", "activity change, negative = inhibition": "inactive"}
{"smiles": "CC(C)N1C(=O)/C(=C\\c2nc3ccccc3c(=O)[nH]2)c2ccccc21", "activity change, negative = inhibition": "inactive"}
{"smiles": "Fc1ccc(C(c2ccc(F)cc2)N2CCN(C/C=C/c3ccccc3)CC2)cc1", "activity change, negative = inhibition": "inactive"}
{"smiles": "CSCCC(c1nnnn1C1CCCCC1)N1CCC(n2c(=O)[nH]c3ccccc32)CC1", "note": "(centres undefined)", "activity change, negative = inhibition": "inactive"}
{"smiles": "CN(C)c1ccnc2c[cH-]cc12.[Fe].c1ccc(-[c-]2[c-](-c3ccccc3)[c-](-c3ccccc3)[c-](-c3ccccc3)[c-]2-c2ccccc2)cc1", "note": "(centres undefined)", "activity change, negative = inhibition": "inactive"}
{"smiles": "CC(C)C1CC(CCNCc2ccc(N(C)C)cc2)(c2ccccc2)CCO1", "note": "(centres undefined)", "activity change, negative = inhibition": "inactive"}
{"smiles": "CCN1C(=O)/C(=C\\C(=O)c2cccs2)c2cc(Br)ccc21", "activity change, negative = inhibition": "inactive"}
{"smiles": "O=C(NCCc1cccc(F)c1)C1CCCN(c2nc3ccccc3s2)C1", "note": "(centres undefined)", "activity change, negative = inhibition": "inactive"}
{"smiles": "Cc1cc2c(OCC(O)CNC3CCCCC3)cccc2[nH]1", "note": "(centres undefined)", "activity change, negative = inhibition": "inactive"}
{"smiles": "Fc1ccc([C@@H]2CCNC[C@H]2COc2ccc3c(c2)OCO3)cc1", "activity change, negative = inhibition": "inactive"}
{"smiles": "c1cc2c3c(cccc3c1)NC(c1ccc3c(c1)OCO3)N2", "activity change, negative = inhibition": "inactive"}
{"smiles": "CCCCOc1ccc2c(c1)C(=O)c1cc(O)ccc1-2", "activity change, negative = inhibition": "inactive"}
{"smiles": "COc1ccccc1Nc1c2c(nc3ccc(N)cc13)CCCC2", "activity change, negative = inhibition": "inactive"}
{"smiles": "Cn1cc(CN2CCC(C(=O)NC(c3ccc(F)cc3)c3ccc4ccccc4n3)CC2)c2ccccc21", "note": "(centres undefined)", "activity change, negative = inhibition": "inactive"}
{"smiles": "CCOc1ccc(NC(=S)N(CCN2CCOCC2)Cc2ccc3c(c2)CCCN3CC)cc1", "activity change, negative = inhibition": "inactive"}
{"smiles": "O=C(Nc1cccc(CNCCc2c[nH]c3ccccc23)c1)c1ccccc1Cl", "activity change, negative = inhibition": "inactive"}
{"smiles": "Cc1cc2c(cc1C)N[C@]1(C[C@H]3CCCC(=O)N4CC[C@@H](C1)[C@@H]34)C(=NC(C)(C)CC(C)(C)C)N2", "activity change, negative = inhibition": "inactive"}
{"smiles": "COc1cc(OC)c2c(-c3ccccc3)cc(=O)oc2c1C(CCN1CCOCC1)c1ccc(N(C)C)cc1", "note": "(centres undefined)", "activity change, negative = inhibition": "inactive"}
{"smiles": "O=C(NC1CCCCC1)C(c1cccnc1)N(C(=O)CCl)c1cccc(Cl)c1", "note": "(centres undefined)", "activity change, negative = inhibition": "inactive"}
{"smiles": "CN(C)c1ccc(NC2=C(Cl)C(=O)c3ccccc3C2=O)cc1", "activity change, negative = inhibition": "inactive"}
{"smiles": "Cc1ccc(Nc2cc(C)nc3c(C)ccc([N+](=O)[O-])c23)cc1", "activity change, negative = inhibition": "inactive"}
{"smiles": "CN=c1scc(-c2cccs2)n1/N=C/c1ccccc1O", "activity change, negative = inhibition": "inactive"}
{"smiles": "C[C@@H]1CN([C@H](C)CO)C(=O)c2c(c3ccccc3n2C)-c2ccccc2CO[C@@H]1CN(C)Cc1ccc2c(c1)OCCN2C", "activity change, negative = inhibition": "inactive"}
{"smiles": "CCOc1ccc(Nc2nc(NCC3CCCO3)c3ccccc3n2)cc1", "note": "(centres undefined)", "activity change, negative = inhibition": "inactive"}
{"smiles": "C(=C\\c1ccncc1)/c1ccncc1", "activity change, negative = inhibition": "inactive"}
{"smiles": "Cc1cc2c(=Cc3ccc(N(C)C)cc3)c3ccccc3n2[n+]1C", "activity change, negative = inhibition": "inactive"}
{"smiles": "CCOc1cc(N2CCOCC2)c(OCC)cc1NC(=O)c1ccc2ccccc2n1", "activity change, negative = inhibition": "inactive"}
{"smiles": "CC#C[C@]1(O)CC[C@H]2[C@@H]3CCC4=CC(=O)CCC4=C3[C@@H](c3ccc(N(C)C)cc3)C[C@@]21C", "activity change, negative = inhibition": "inactive"}
{"smiles": "C[C@@H]1CCCCO[C@H](CN(C)Cc2ccc(C(F)(F)F)cc2)[C@H](C)CN([C@H](C)CO)C(=O)c2cc(N(C)C)ccc2O1", "activity change, negative = inhibition": "inactive"}
{"smiles": "CCOc1cc(CNc2cccc3[nH]c(C)nc23)ccc1OC", "activity change, negative = inhibition": "inactive"}
{"smiles": "CCN(CC)CCSc1nc2ccccc2c(=S)n1-c1ccccc1", "activity change, negative = inhibition": "inactive"}
{"smiles": "Cc1ccc2nc(-c3ccccn3)c(NC3CCCC3)n2c1", "activity change, negative = inhibition": "inactive"}
{"smiles": "Cc1c(C)n(Cc2ccccc2)c2ccc(C(=O)OCCN(C)C)cc12", "activity change, negative = inhibition": "inactive"}
{"smiles": "CN(C)CCNc1nc2sc3c(c2c(=O)n1CCc1ccccc1)CCCCC3", "activity change, negative = inhibition": "inactive"}
{"smiles": "COc1ccccc1N1CCN(/N=C\\c2sccc2C)CC1", "activity change, negative = inhibition": "inactive"}
{"smiles": "CC(=Nc1ccc(C)cc1C)c1sc2ccccc2c1O", "activity change, negative = inhibition": "inactive"}
{"smiles": "O=C(Cc1cccnc1)N1CC(=O)N2[C@H](C1)[C@H](c1ccc(C3=CCCC3)cc1)[C@@H]2CO", "activity change, negative = inhibition": "inactive"}
{"smiles": "Cc1cc(C)c2sc(N(CCCN(C)C)C(=O)c3ccc(S(=O)(=O)N4CCCc5ccccc54)cc3)nc2c1", "activity change, negative = inhibition": "inactive"}
{"smiles": "CNC(=S)N1N=C(c2ccc(C)cc2)CC1c1ccc(N(C)C)cc1", "note": "(centres undefined)", "activity change, negative = inhibition": "inactive"}
